The results in this text go back to patent US20140155445A1, “Compounds and Methods for Treating Cancer and Diseases of the Central Nervous System” (Osta Biotechnologies Inc., priority 2007, published 2014).

Structures can show the parent of a compound that is named as a salt. Where two headings read alike, the source gives them in different places. Bounds are passed on as bounds.

In experiment [1] the target is T1, HO-1 (rat spleen) (Rattus norvegicus, UniProt P06762).
T1 construct: Spleen microsomes were used as a source of HO-1; from tissue; host or cells: spleen microsomal fraction of adult male Sprague-Dawley rats
T1 sequence (P06762 1-289): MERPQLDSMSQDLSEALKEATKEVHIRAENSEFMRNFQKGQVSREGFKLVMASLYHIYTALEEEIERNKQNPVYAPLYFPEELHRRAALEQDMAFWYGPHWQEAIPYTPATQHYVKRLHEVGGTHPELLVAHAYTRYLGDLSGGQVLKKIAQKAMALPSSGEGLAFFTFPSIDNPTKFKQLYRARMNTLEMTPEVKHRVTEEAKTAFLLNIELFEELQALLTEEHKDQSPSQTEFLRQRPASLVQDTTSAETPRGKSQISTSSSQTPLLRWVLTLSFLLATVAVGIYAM
Description: HO enzymatic activity in rat spleen microsomal fraction (CO formed from methemalbumin, gas chromatography). It is filed as biochemical. Conditions: rat spleen microsomes, average ± standard deviation of replicate experiments; for IC50: read-out: IC50 HO-1 (rat spleen)/μM.

In experiment [2] the target is T2, HO-2 (rat brain) (Rattus norvegicus, UniProt P23711).
T2 construct: brain microsomes were used as a source of HO-2; from tissue; host or cells: brain microsomal fraction of adult male Sprague-Dawley rats
T2 sequence (P23711 1-315): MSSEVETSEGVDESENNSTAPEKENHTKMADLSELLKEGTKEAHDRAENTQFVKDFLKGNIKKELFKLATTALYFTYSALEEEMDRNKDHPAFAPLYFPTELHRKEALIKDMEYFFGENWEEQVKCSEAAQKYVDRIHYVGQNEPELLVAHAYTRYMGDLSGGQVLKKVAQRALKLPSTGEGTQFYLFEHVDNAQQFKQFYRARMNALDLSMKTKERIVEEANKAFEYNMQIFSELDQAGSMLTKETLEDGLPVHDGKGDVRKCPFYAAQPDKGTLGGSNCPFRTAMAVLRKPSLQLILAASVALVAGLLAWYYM
Description: HO enzymatic activity in rat brain microsomal fraction (CO formed from methemalbumin, gas chromatography). It is filed as biochemical.

Setting [3] is: rat brain microsomes, average ± standard deviation of replicate experiments, read-out: IC50 HO-2 (rat brain)/μM.

With `c1ccc(CCCCn2ccnc2)cc1` [1-(4-phenyl-butyl)-1H-imidazole hydrochloride], the IC50 is 3.5 ± 0.9 µM in experiment [1] and more than 100 µM in experiment [2] (setting [3]).
In the same order, the values of `OC(CCc1ccc(Cl)cc1)Cn1ccnc1` (centres unmarked) [4-(4-chlorophenyl)-1-(1H-imidazol-1-yl)butan-2-ol hydrochloride] are 0.5 ± 0.1 µM and 4 ± 0.6 µM.
For `Cc1nccn1CC1(CCc2ccc(Cl)cc2)OCCO1.Cl`, the “IC50 HO-1 (rat spleen)/μM” value in experiment [1] is “INACTIVE”. The “IC50 HO-2 (rat brain)/μM” value in experiment [2] (rat brain microsomes, average ± standard deviation of replicate experiments) was “INACTIVE”.
`c1ccc(CCn2ccnc2)cc1` [1-Phenethyl-1H-imidazole]: the values for the IC50 in experiment [1] and in experiment [2] (setting [3]) were 72 ± 11 µM and more than 100 µM, respectively.
In the same order, the values of `c1ccc(CCC2(Cn3cncn3)OCCO2)cc1` [2-(2-phenethyl)-2-{(1H-[1,2,4]triazol-1-yl)methyl}-1,3-dioxolane hydrochloride] are 13 ± 2 µM and more than 100 µM.
Turning to `COc1ccc(OCC2CO[C@@](CCc3ccc(Cl)cc3)(Cn3ccnc3)O2)cc1` (stereo in doubt) [(2R,4S)-1-[2-[2-(4-chloro-phenyl)-ethyl]-4-(4-methoxy-phenoxymethyl)-[1,3]dioxolan-2-ylmethyl]-1H-imidazole hydrochloride], the IC50 in experiment [1] amounted to 1.33 ± 0.03 µM; in experiment [2] (setting [3]) it was 19 ± 7 µM.
Turning to `O=C(Cn1cncn1)c1ccc(Cl)c(Cl)c1` [1-(3,4-Dichloro-phenyl)-2-[1,2,4]triazol-1-yl-ethanone hydrochloride], the figures for the IC50 in experiment [1] and in experiment [2] (setting [3]) were 1.3 ± 0.5 µM and more than 100 µM, respectively.
In the same order, the values of `Clc1ccc(CC[C@@]2(Cn3ccnc3)OCC(COc3ccc(I)cc3)O2)cc1` (stereo in doubt) [(2R,4S)-1-[2-[2-(4-chloro-phenyl)-ethyl]-4-(4-iodo-phenoxymethyl)-[1,3]dioxolan-2-ylmethyl]-1H-imidazole hydrochloride] are 9 ± 3 µM and 15 ± 4 µM.
With `O=C(Cn1ccnc1)c1ccc(F)cc1` [1-(4-fluoro-phenyl)-2-imidazol-1-yl-ethanone hydrochloride], the figures for the IC50 in experiment [1] and in experiment [2] (setting [3]) were 2.1 ± 0.1 µM and 35 ± 3 µM, respectively.
Consider `C[C@H]1CO[C@@](CCc2ccc(Cl)cc2)(Cn2ccnc2)O1` [(2R,4S)-2-[2-(4-chlorophenyl)ethyl]-2-[(1H-imidazol-1-yl)methyl]-4-methyl-1,3-dioxolane hydrochloride], for which the IC50 in experiment [1] is 2.6 ± 0.4 µM; in experiment [2], more than 100 µM.
For the molecule `OC(CCn1ccnc1)C12CC3CC(CC(C3)C1)C2` (racemic) [(±)-1-adamantan-1-yl-3-imidazol-1-yl-propan-1-ol hydrochloride], the results for the IC50 in experiment [1] and in experiment [2] (setting [3]) were 2 ± 0.6 µM and 6.5 ± 0.1 µM, respectively.
In the same order, the values of `C[C@@H]1CO[C@@](CCc2ccccc2)(Cn2ccnc2)O1` [(2R,4R)-2-[2-(4-phenyl)ethyl]-2-[(1H-imidazol-1-yl)methyl]-4-methyl-1,3-dioxolane hydrochloride] are 2 ± 1 µM and more than 43 µM.
In the same order, the values of `Clc1ccc(CCC2(Cn3ccnc3)OCCO2)cc1` [2-[2-(4-chlorophenyl)ethyl]-2-[(1H-imidazol-1-yl)methyl]-1,3-dioxolane hydrochloride] are 4 ± 2 µM and more than 100 µM.
In the same order, the values of `COc1ccc(CCN2CCC(Nc3nc4cc(C)c(C)cc4n3Cc3ccc(F)cc3)CC2)cc1` are more than 100 µM and 91 ± 45 µM.
For `OC(Cn1ccnc1)c1ccc(Cl)cc1` (racemic) [(±)-1-(4-chloro-phenyl)-2-imidazol-1-yl-ethanol hydrochloride], the values for the IC50 in experiment [1] and in experiment [2] (setting [3]) were 1.19 ± 0.03 µM and 16 ± 8 µM, respectively.
In the same order, the values of `FC(F)(F)c1ccc(SC[C@@H]2CO[C@@](CCc3ccc(Cl)cc3)(Cn3ccnc3)O2)nc1` [(2R,4S)-2-[2-(4-chlorophenyl)ethyl]-2-[(1H-imidazol-1-yl)methyl]-4[{(5-trifluoromethyl-pyridin-2-yl)ethio}methyl]-1,3-dioxolane hydrochloride] are 2.1 ± 0.6 µM and 16 ± 8 µM.
